Each structure is given as a SMILES string.

One data set has as its system HSP70. Nature of the data set: Example 4: Western blotting densitometry, HSP70. The data set is classed as in vivo, Sprague-Dawley rats. The source says:
(§1) 60 male Sprague-Dawley rats weighing 290-310 g at the time of injury were used in this experiment. Food and water were provided ad libidum before and after surgery. Animals were handled and weighed daily from their arrival, seven days pre-surgery, to brain extraction three weeks post-surgery. Animals were handled in squads of 12, with n=10 per experimental condition. All animal procedures were approved by the Emory University Animal Care and Use Committee, Protocol #131-2002.
Isofluorane anesthesia was induced for four minutes and 45 seconds at 5% and maintained at 2.5%. Normal body temperature was maintained with a surgical heating pad placed beneath the sterile dressings. The scalp incision area was shaved and sterilized with iodine and isopropanol. A midline incision was made along the scalp and the fascia cleared to expose the surface of the skull. Medial, lateral, and dorsal stereotaxic coordinates were determined at bregma, and a 5-7 mm diameter bilateral craniotomy was performed mid-sagitally, 3 mm anterior to bregma. […] Sutures were used to close the incision after bleeding ceased. Animals were placed in individual heated, clean recovery cages until they awakened, and were returned to clean individual home cages with accessible moistened food pellets. Sham animals were anesthetized, and an incision was made at the top of the head. The fascia was cleared to expose bregma, then the incision was sutured closed. Sham surgeries were matched to lesion surgeries for all experimental conditions.
Sham (S) and lesion (L) animals were randomly assigned to one of three treatment groups: vehicle (VS, VL), acute withdrawal (AWS, AWL), and tapered withdrawal (TWS, TWL). […] Tapering was induced as halved dosages over the last two days of treatment. Dilutions for TW treatments were made with HBC stock. […]
(§2) Brains for protein analysis were sectioned into the immediate area of the lesion and snap frozen in 2-methyl-butane chilled on dry ice. […] The amount of brain homogenate needed to standardize samples to 2 μg/μL for Western blotting was calculated from the results of these assays. […]
(A western blot detects proteins with antibodies after separation by electrophoresis.)

Another data set has as its system GFAP. The class given is in vivo. The conditions noted are these: acute withdrawal, lesion (AWL) vs VL; three weeks post-injury.
Text: as §1
Isofluorane anesthesia was induced for four minutes and 45 seconds at 5% and maintained at 2.5%. Normal body temperature was maintained with a surgical heating pad placed beneath the sterile dressings. The scalp incision area was shaved and sterilized with iodine and isopropanol. A midline incision was made along the scalp and the fascia cleared to expose the surface of the skull. Medial, lateral, and dorsal stereotaxic coordinates were determined at bregma, and a 5-7 mm diameter bilateral craniotomy was performed mid-sagitally, 3 mm anterior to bregma. […]
All animals were decapitated following a lethal 1 mL injection of Nembutal at three weeks post-injury. […] Thionin-stained sections from 4.2-2.2 mm anterior to bregma were identified and analyzed for lesion area using Kodak ID software. Total brain area was determined by determined by normalizing to the volume of sham brain sections. […]

The next data set deals with p53. As to the kind of experiment: Example 4: Western blotting densitometry, p53. The class given is in vivo, Sprague-Dawley rats. The settings on record: all progesterone-treated animals (AW and TW); two weeks post-withdrawal.
Text: as §1
Isofluorane anesthesia was induced for four minutes and 45 seconds at 5% and maintained at 2.5%. Normal body temperature was maintained with a surgical heating pad placed beneath the sterile dressings. The scalp incision area was shaved and sterilized with iodine and isopropanol. A midline incision was made along the scalp and the fascia cleared to expose the surface of the skull. Medial, lateral, and dorsal stereotaxic coordinates were determined at bregma, and a 5-7 mm diameter bilateral craniotomy was performed mid-sagitally, 3 mm anterior to bregma. […] Sutures were used to close the incision after bleeding ceased. […]
as §2

On to `CC(=O)[C@H]1CC[C@H]2[C@@H]3CCC4=CC(=O)CC[C@]4(C)[C@H]3CC[C@]12C` [progesterone, pregn-4-ene-3,20-dione], for which the HSP70 levels result is given as “increased HSP70 compared to vehicle-treated animals” with HSP70 (all progesterone treatment vs vehicle-treated animals, three weeks post-injury); “Sham animals did not display any differences between treatment groups” in the data set with HSP70 (sham animals (AWS, TWS, VS)); “increased in TWL animals” in the data set on HSP70 (tapered withdrawal, lesion (TWL) vs VL and AWL, three weeks post-injury). For the same compound, the “GFAP immunofluorescence luminosity (reactive astrocytes)” value with GFAP is listed as “upregulated in VL (A) animals over AWL (B) animals”. Also, in the data set on p53, the “p53 levels (long-term marker of apoptosis)” value is recorded as “p53 levels indistinguishable from vehicle shams”.

The record behind these values is patent US8614203B2, “Methods for the treatment of a central nervous system injury via a tapered administration protocol” (Emory University, priority 2005, dated 2013).
